Data reported in patent publication US20240174672A1, “Spirocycle Containing Pyridone Compounds” (Protego Biopharma, Inc., priority 2022, published 2024).

System: immunoglobulin light chain protein WIL-FL T46L
Assay: Differential Scanning Fluorimetry (thermal shift) assay
Type: binding
Details: recombinant amyloidogenic full length light chain WIL-FL T46L; protein and compound incubated at RT for 30 min before dye
Protocol: Differential Scanning Fluorimetry Assay
The stabilization effects the compounds have on the immunoglobulin light chain protein was quantitively measured using a thermal shift assay. Recombinant amyloidogenic full length light chain protein WIL-FL T46L was produced in E. coli, purified, and used in the assay. The Thermal Shift Protein Stability Kit from Biotium was used and the assay was done in 96-well Plates following the manufacturer's instructions. The protein and compounds were incubated at RT for 30 min before adding the dye and subjected to the thermal shift assay. The thermal stability (Tm) of each sample was then determined using standard curve fitting methods and compared to vehicle. Data are expressed as temperature shift: [Tm]compound−[Tm]vehicle.
The compounds provided herein induce shifts in the ranges below: • 0-0.5° C.═* • >0.5-1° C.═** • >1-1.5° C.═*** • >1.5-2.5° C.═**** • >2.5° C.═*****

SMILES	DSF temperature shift: [Tm]compound−[Tm]vehicle
Cc1nc(N2CC[C@](C)(c3ccccc3)C2)cc(=O)n1CCN1CC2(CCN(c3nccn4ccnc34)CC2)NC1=O [Compound 24]	*** (>1-1.5° C.═***)
Cc1cc(N2CC[C@@](C)(c3ccccc3)C2)cc(=O)n1CCN1C(=O)NC2(CCN(c3nccn4cncc34)CC2)C1=O [Compound 31]	*** (>1-1.5° C.═***)
Cc1cc(N2CCC(C)(c3ccccc3)C2)cc(=O)n1CCCN1C(=O)NC2(CCN(c3nccn4ccnc34)CC2)C1=O (stereo not shown) [Compound 29]	**** (>1.5-2.5° C.═****)
CC[C@]1(c2ccccc2)CCN(c2cc(C)n(CCN3CC4(CCN(c5ccc(C(=O)OC)nn5)CC4)NC3=O)c(=O)c2)C1 [Compound 18]	***** (>2.5° C.═*****)
Cc1cc(N2CCC(C)(c3ccccc3)C2=O)cc(=O)n1CCN1C(=O)NC2(CCN(c3ncccn3)C2)C1=O (stereo not shown) [Compound 34, 3-(2-(6-methyl-4-(3-methyl-2-oxo-3-phenylpyrrolidin-1-yl)-2-oxopyridin-1(2H)-yl)ethyl)-7-(pyrimidin-2-yl)-1,3,7-triazaspiro[4.4]nonane-2,4-dione]	* (0-0.5° C.═*)
Cc1cc(N2CCC(C)(c3ccccc3)C2)cc(=O)n1CCN1C(=O)NC2(CCN(c3ncccn3)CC2)C1=O (stereo not shown) [Compound 30]	**** (>1.5-2.5° C.═****)
CC[C@@]1(c2ccccc2)CCN(c2cc(C)n(CCN3CC4(CCN(c5nccn6cnnc56)CC4)NC3=O)c(=O)c2)C1 [Compound 1, (S)-8-([1,2,4]triazolo[4,3-a]pyrazin-8-yl)-3-(2-(4-(3-ethyl-3-phenylpyrrolidin-1-yl)-6-methyl-2-oxopyridin-1(2H)-yl)ethyl)-1,3,8-triazaspiro[4.5]decan-2-one]	***** (>2.5° C.═*****)
Cc1cc(N2CC[C@@](C)(c3ccccc3)C2)cc(=O)n1CCCN1C(=O)NC2(CCN(c3nccn4ccnc34)CC2)C1=O [Compound 27]	**** (>1.5-2.5° C.═****)
Cc1cc(N2CCC(C)(c3ccccc3)C2)cc(=O)n1CCCN1C(=O)NC2(CCN(c3ncccn3)CC2)C1=O (stereo not shown) [Compound 28, 3-(3-(6-methyl-4-(3-methyl-3-phenylpyrrolidin-1-yl)-2-oxopyridin-1(2H)-yl)propyl)-8-(pyrimidin-2-yl)-1,3,8-triazaspiro[4.5]decane-2,4-dione]	**** (>1.5-2.5° C.═****)
Cc1cc(N2CC[C@@](C)(c3ccccc3)C2)cc(=O)n1CCN1CC2(CCN(c3ncnc4[nH]ncc34)CC2)NC1=O [Compound 9]	**** (>1.5-2.5° C.═****)
CCOC(=O)c1ccc(N2CCC3(CC2)CN(CCn2c(C)cc(N4CC[C@](CC)(c5ccccc5)C4)cc2=O)C(=O)N3)cn1 [Compound 14]	***** (>2.5° C.═*****)
Cc1cc(N2CC[C@@](C)(c3ccccc3)C2)cc(=O)n1CCCN1CC2(CCN(c3nccn4ccnc34)CC2)NC1=O [Compound 13]	** (>0.5-1° C.═**)
Cc1cc(O[C@H](C)c2ccccc2)cc(=O)n1CCN1C(=O)NC2(CCN(c3nccn4ccnc34)CC2)C1=O [Compound 32, (R)-8-(imidazo[1,2-a]pyrazin-8-yl)-3-(2-(6-methyl-2-oxo-4-(1-phenylethoxy)pyridin-1(2H)-yl)ethyl)-1,3,8-triazaspiro[4.5]decane-2,4-dione]	** (>0.5-1° C.═**)
CC[C@]1(c2ccccc2)CCN(c2cc(C)n(CCN3CC4(CCN(c5nccn6cnnc56)CC4)NC3=O)c(=O)c2)C1 [Compound 22]	*** (>1-1.5° C.═***)
CC[C@@]1(c2ccccc2)CCN(c2cc(C)n(CCN3CC4(CCN(c5cn6ccnc6cn5)CC4)NC3=O)c(=O)c2)C1 [Compound 15]	**** (>1.5-2.5° C.═****)
CC[C@]1(c2ccccc2)CCN(c2cc(C)n(CCN3CC4(CCN(c5ccc(C(=O)O)nc5)CC4)NC3=O)c(=O)c2)C1 [Compound 19]	** (>0.5-1° C.═**)
Cc1cc(N2CCC(C)(c3ccccc3)C2)cc(=O)n1CCN1C(=O)NC2(CCN(c3ncccn3)C2)C1=O (stereo not shown) [Compound 33]	*** (>1-1.5° C.═***)
Cc1cc(N2CC[C@](C)(c3ccccc3)C2)cc(=O)n1CCCN1C(=O)NC2(CCN(c3nccn4ccnc34)CC2)C1=O [Compound 35]	*** (>1-1.5° C.═***)
CC[C@]1(c2ccccc2)CCN(c2cc(C)n(CCN3CC4(CCN(c5cccc(C(=O)O)n5)CC4)NC3=O)c(=O)c2)C1 [Compound 20]	**** (>1.5-2.5° C.═****)
CC[C@@]1(c2ccccc2)CCN(c2cc(C)n(CCN3CC4(CCN(c5ccc6nncn6c5)CC4)NC3=O)c(=O)c2)C1 [Compound 16]	**** (>1.5-2.5° C.═****)
CC[C@]1(c2ccccc2)CCN(c2cc(C)n(CCN3CC4(CCN(c5ccc(C(=O)O)nn5)CC4)NC3=O)c(=O)c2)C1 [Compound 17]	***** (>2.5° C.═*****)
Cc1cc(N2CC[C@](C)(c3ccccc3)C2)cc(=O)n1CCN1CC2(CCN(c3nccn4ccnc34)CC2)NC1=O [Compound 12]	*** (>1-1.5° C.═***)
Cc1cc(N2CC[C@@](C)(c3ccccc3)C2)cc(=O)n1CCCN1CC2(CCN(c3nccn4ccnc34)CC2)NC1=O [Compound 10]	**** (>1.5-2.5° C.═****)
CC[C@]1(c2ccccc2)CCN(c2cc(C)n(CCN3CC4(CCN(c5cccc(C(=O)OC)n5)CC4)NC3=O)c(=O)c2)C1 [Compound 21]	**** (>1.5-2.5° C.═****)
Cc1cc(N2CCC(C)(c3ccccc3)C2)cc(=O)n1CCN1CC2(CCN(c3ncccn3)C2)NC1=O (stereo not shown) [Compound 11, 3-(2-(6-methyl-4-(3-methyl-3-phenylpyrrolidin-1-yl)-2-oxopyridin-1(2H)-yl)ethyl)-7-(pyrimidin-2-yl)-1,3,7-triazaspiro[4.4]nonan-2-one]	*** (>1-1.5° C.═***)
